One assay has as its target hCA I. Particulars: stopped-flow CO2 hydrase assay, mean of three assays; cited from earlier work.
In a further assay the target is hCA IX. The conditions noted are these: stopped-flow CO2 hydrase assay, mean of three assays; cited from earlier work.
The next assay has as its target hCA XII. Particulars: stopped-flow CO2 hydrase assay, mean of three assays; cited from earlier work.
Another assay has as its target hCA II. The conditions noted are these: stopped-flow CO2 hydrase assay, mean of three assays; cited from earlier work.
A further assay has as its target hCA IV. Particulars: stopped-flow CO2 hydrase assay, mean of three assays; cited from earlier work.
For a further assay, the system named is A549. Nature of the assay: MTT antiproliferative assay, A549. The assay is classed as cell-based. The conditions noted are these: Homo sapiens, normoxic conditions, 72 h. On the procedure:
The human triple-negative breast cancer cell line (MDA-MB-231), colon cancer cell line (HCT-116), and lung cancer cell line (A549) used in this study were obtained from the American Type Culture Collection (ATCC). These cell lines were cultured as monolayers in Dulbecco’s Modified Eagle’s Medium (DMEM) supplemented with 10% FBS, 2 mM l-glutamine, 100 U/mL penicillin, and 100 µg/mL streptomycin sulfate. […] The cells were sub-cultured using trypsin/EDTA solution, counted with a hemocytometer, and plated on 96-well plates (5000 cells/well), allowing them to form a semi-confluent monolayer overnight. […]. DMSO (100 µL/well) was then added to dissolve the formazan crystals with shaking for 10 min, after which the absorb absorbance was read at 590 nm against no-cell blanks using a FLuo Star Optima microplate reader (BMG technologies, Ortenberg, Germany). Cell proliferation was calculated by comparing the OD values of the DMSO control wells with those of the samples, represented as % proliferation relative to the control.
A general note: Tetrazolium assays rely on reduction of a dye to a coloured formazan, in cell work by metabolically active cells.

Structures are written as SMILES. A value given as a limit tells only on which side of the number the result lay.

As for `COc1ccc(CN(CCc2ccc(S(N)(=O)=O)cc2)C(=O)c2ccc(-c3cssc3=S)cc2)cc1` [Compound 27], the inhibitory constant (Ki) (usually a measure of affinity in units of concentration, obtained from inhibition or displacement) is 2220 nM on hCA I; 50.3 nM on hCA IX; 76.4 nM on hCA XII; 589 nM on hCA II; 1590 nM at hCA IV.

For `COc1ccc(CN(CCc2ccc(S(N)(=O)=O)cc2)C(=O)c2ccc(-c3cssc3=S)cc2)cc1OC` [Compound 28], the Ki at hCA I is 890 nM; at hCA IX, 18.6 nM; on hCA XII it was 8.9 nM; at hCA II, 218 nM; on hCA IV it was 293 nM.

For the compound `N#CCCN(CCc1ccc(S(N)(=O)=O)cc1)C(=O)c1ccc(-c2cssc2=S)cc1` [Compound 33], the Ki at hCA I was 429 nM; at hCA IX it was 28.7 nM; on hCA XII, 9.1 nM; on hCA II it was 60.4 nM; on hCA IV it was 523 nM.

`NS(=O)(=O)c1ccc(CCN(Cc2ccc(Cl)cc2)C(=O)c2ccc(-c3cssc3=S)cc2)cc1` [Compound 21]: the Ki on hCA I was 5500 nM; at hCA IX, 24 nM; on hCA XII, 9.8 nM; at hCA II, 2970 nM; on hCA IV, 430 nM.

For `CN[C@@H]1C[C@H]2O[C@@](C)([C@@H]1OC)n1c3ccccc3c3c4c(c5c6ccccc6n2c5c31)C(=O)NC4` [Staurosporine, reference compound], the IC50 (as a rule, the concentration that gives 50% inhibition) in the assay with A549 is 5110 ± 190 nM.

With `CN(C)c1ccc(CN(CCc2ccc(S(N)(=O)=O)cc2)C(=O)c2ccc(-c3cssc3=S)cc2)cc1` [Compound 24], the inhibition constant (Ki) on hCA I is 4260 nM; at hCA IX, 22.7 nM; on hCA XII it was 9.5 nM; at hCA II, 995 nM; on hCA IV, 3410 nM.

For `NS(=O)(=O)c1ccc(CCN(Cc2ccc(F)cc2)C(=O)c2ccc(-c3cssc3=S)cc2)cc1` [Compound 20], the Ki at hCA I was 5320 nM; on hCA IX, 46.3 nM; at hCA XII, 65.3 nM; at hCA II, 600 nM; on hCA IV, above 10000 nM.

For the compound `NS(=O)(=O)c1ccc(CCN(Cc2ccccc2)C(=O)c2ccc(-c3cssc3=S)cc2)cc1` [Compound 19], the Ki is 771 nM at hCA I; 43 nM at hCA IX; 9.7 nM at hCA XII; 480 nM at hCA II; 4340 nM on hCA IV.

Take `NS(=O)(=O)c1ccc(CCN(Cc2csc3ccccc23)C(=O)c2ccc(-c3cssc3=S)cc2)cc1` [Compound 31]: the Ki on hCA I is above 10000 nM; at hCA IX, 2.4 nM; at hCA XII, 8 nM; at hCA II, 2480 nM.

Consider `NS(=O)(=O)c1ccc(CCN(Cc2ccc([N+](=O)[O-])cc2)C(=O)c2ccc(-c3cssc3=S)cc2)cc1` [Compound 25], for which the inhibition constant (Ki) at hCA I was 7450 nM; at hCA IX it was 36.6 nM; at hCA XII, 32.9 nM; at hCA II, 919 nM; on hCA IV, above 10000 nM.

On to `NS(=O)(=O)c1ccc(CCN(CCc2ccccc2)C(=O)c2ccc(-c3cssc3=S)cc2)cc1` [Compound 32], for which the inhibition constant Ki at hCA I was 4390 nM; on hCA IX, 126 nM; at hCA XII, 9.6 nM; on hCA II it was 661 nM; on hCA IV, 243 nM.

The record behind these values is paper PMC11432087, “Hydrogen Sulfide-Releasing Carbonic Anhydrase Inhibitors Effectively Suppress Cancer Cell Growth” (International Journal of Molecular Sciences, 2024).
